The record followed here is paper PMC5345165, “Cardiotoxicity evaluation using human embryonic stem cells and induced pluripotent stem cell-derived cardiomyocytes” (Stem Cell Research & Therapy, 2017).

The test system of one data set is hESC-CMs. Put plainly: xCELLigence RTCA Cardio impedance assay on hESC-CMs. It is filed as cell-based, human. To be noted: for CI (concentration at which cell index is decreased, ↓): arrow ↓ = CI decreased, NO = no effect. The procedure: (§1) Human ESC-CMs were kindly provided by the Institute of Biophysics of the Chinese Academy of Sciences, Beijing, China. Human iPSC-CMs, provided by a domestic manufacturer (Cellapy: CA2001106, Beijing, China), were also examined. Cells were incubated in maintaining medium at 37 °C, 5% CO2, with culture medium refreshed every 2 days. Cells were dissociated and replated into 96-well E-plates (ACEA Biosciences, Hangzhou, China), which was pre-coated with 0.1% gelatin. Cells were plated at a density of 50,000 cells per well.
(§2) Spontaneous cardiomyocytes contraction and cell health were monitored in real-time by impedance using xCELLigence real-time cellular analyzer (RTCA) Cardio system (ACEA Biosciences, Hangzhou, China). Impedance signals were monitored and recorded with 20 s recording per sweep.
(§3) Drug dilutions were equilibrated in a 37 °C, 5% CO2 incubator for 30 min before being applied to E-plates.
(§4) For data analysis, cellular impedance index, beat rate, and amplitude were measured off-line using RTCA Cardio software 1.0 and normalized for each well to the baseline (pre-dose) values measured prior to the compounds treatment. Statistics were performed using SPSS 21.0 (IBM Corp., Armonk, NY, USA). Data were presented as mean ± SEM. Statistical significance of differences was estimated by one-way ANOVA or Student’s t test. p < 0.05 was considered significant.

A further data set relates to hiPSC-CMs. In words: xCELLigence RTCA Cardio impedance assay on hiPSC-CMs. It is filed as cell-based, human. To be noted: for CI (concentration at which cell index is decreased, ↓): arrow ↓ = CI decreased. As to the method: as §1, §2, §3, §4
The mark [1] stands for this setting: concentration-dependent effect, impedance.
Where [2] appears, read: hiPSC-CMs, concentration-dependent.
[3] abbreviates: hiPSC-CMs, concentration-dependent effect, impedance.

`Cc1cccc(CCN2CCC(C(=O)c3ccc(NS(C)(=O)=O)cc3)CC2)n1` [E-4031]: the “time at which cells recovered automaticity” value in the data set with hESC-CMs (10 nmol/L) is reported as 24 h. In the data set on hESC-CMs (300 nmol/L), the “time post administration at which spontaneous beating ceased” value came out at 0.5 h. Further, in the data set with hESC-CMs (300 nmol/L, one recording), the “time of temporary recovery of spontaneous beating activity” value came out at 18 h. Moreover, the “time post administration at which spontaneous activity ceased” value in the data set on hESC-CMs (10, 30 and 100 nmol/L) is recorded as 6 h. Further, the spontaneous beating rate result is “Reduction” in the data set with hESC-CMs (all concentrations (10, 30, 100, 300 nmol/L), upon immediate administration); “markedly reduced” with hiPSC-CMs (hiPSC-CMs, 100 nmol/L, 6 h after administration); “significantly reduced” in the data set with hiPSC-CMs (hiPSC-CMs, 300 nmol/L, 1 h after administration). In addition, the CI amplitude result in the data set with hiPSC-CMs (hiPSC-CMs, 30 nmol/L, 18 h culture, tended to recover at 24 h) is listed as “Reduction”. Moreover, the “time at which spontaneous beating ceased” value in the data set on hiPSC-CMs (hiPSC-CMs, 100 nmol/L) is listed as 12 h. Also, in the data set on hiPSC-CMs (hiPSC-CMs, 300 nmol/L), the “time post administration at which spontaneous activity was abolished” value amounted to 2 h.

Consider `O=C(CCCN1CCC(O)(c2ccc(Cl)cc2)CC1)c1ccc(F)cc1` [Haloperidol, haloperidol], for which the beating rate entry with hESC-CMs (0.01 μmol/L, 6 h post administration) is reported as “mild reduction”; in the data set on hiPSC-CMs (hPSC-CMs, 1 μmol/L, after 0.5 h), “significantly reduced”. The “spontaneous beating rate and amplitudes” value in the data set with hESC-CMs (0.1 μmol/L) was “significantly reduced”. The “time at which cellular automaticity ceased” value came out at 0.5 h in the data set on hESC-CMs (1 μmol/L) and 0.5 h in the data set with hiPSC-CMs (hPSC-CMs, 10 μmol/L). For the same compound, the “time post administration at which partial recovery was observed” value in the data set on hESC-CMs (1 μmol/L) stood at 24 h. Moreover, the “self-recovery after abolished spontaneous beating” value in the data set on hESC-CMs (10 μmol/L, investigation period) was “no self-recovery”. For the same compound, the “effect on CI and pulse signals” value in the data set on hESC-CMs (concentration-dependent) and with hiPSC-CMs (setting [2]) was “reduced” in each case. Also, the “IC50/EC50 (IC50)” value in the data set on hESC-CMs (setting [1]) was determined as 0.14 µM; in the data set on hiPSC-CMs (setting [3]), 5.17 µM. Also, in the data set with hiPSC-CMs (hPSC-CMs, 0.1 μmol/L), the spontaneous beating rate result was “Mild reduction”. Also, in the data set on hiPSC-CMs (hPSC-CMs, 0.1 μmol/L), the “time post administration at which beating rate recovered” value is on record as 18 h. In addition, in the data set on hiPSC-CMs (hPSC-CMs, 10 μmol/L), the “time at which self-recovery was observed” value worked out at 24 h. Further, the “amplitude compared with controls” value with hiPSC-CMs (hPSC-CMs, 10 μmol/L, after self-recovery at 24 h) was “significantly decreased”. In the data set with hiPSC-CMs (hiPSC-CMs), the “CI (concentration at which cell index is decreased, ↓)” value was 10↓ μmol•L^-1.

As to `CC(C)NCC(O)c1ccc(O)c(O)c1` (stereo not drawn) [Isoprenaline, isoprenaline], in the data set with hESC-CMs (0.01 μmol/L), the “time after which beating rate recovered” value is on record as 12 h. In addition, the spontaneous beating rate entry with hESC-CMs (0.01 μmol/L, 0.5 h post injection) is “increased”. The “time at which automaticity recovered” value in the data set with hESC-CMs (0.1, 1 and 10 μmol/L) is 24 h. Also, the cellular automaticity result with hESC-CMs (0.1, 1 and 10 μmol/L, 0.5 h post injection) is reported as “significantly increased”. The entries for the “CI (concentration at which cell index is decreased, ↓)” value with hESC-CMs, with hESC-CMs (listed as isoprenaline) and with hiPSC-CMs (hiPSC-CMs) were 0.1↓ μmol•L^-1, ≥ 0.1 µmol/L and 1↓ μmol•L^-1, respectively. The “IC50/EC50 (EC50)” value in the data set with hESC-CMs (setting [1]) amounted to 0.04 µM; with hiPSC-CMs (setting [3]) it was 0.03 µM. Also, the amplitude result in the data set on hiPSC-CMs (hPSC-CMs, 0.1, 1 and 10 μmol/L) was “increased”. Also, the “time at which beating rate recovered” value with hiPSC-CMs (hiPSC-CMs, 0.1, 1 and 10 μmol/L) turned out to be 24 h. Also, the beating rate entry in the data set with hiPSC-CMs (hiPSC-CMs, 0.1, 1 and 10 μmol/L, after 0.5 h of administration) is “significantly increased”. For the same compound, the “effect on CI” value with hiPSC-CMs (setting [2]) is on record as “decrease”.

Turning to `C=C[C@H]1C[N@@]2CC[C@H]1C[C@@H]2[C@@H](O)c1ccnc2ccc(OC)cc12` [Quinidine, quinidine], the “time at which spontaneous beating recovered” value with hESC-CMs (12.5 μmol/L) came to 6 h; in the data set with hESC-CMs (50 μmol/L), 24 h. The “self-recovery after abolished cellular automaticity” value with hESC-CMs (100 μmol/L) is on record as “without observing self-recovery”. In addition, the “effect on CI” value in the data set on hESC-CMs (100 μmol/L, when perfusion was initiated) is “significant temporary decrease”; in the data set on hiPSC-CMs (setting [2]) it was “reduced”. Also, the “time post administration at which spontaneous beating ceased” value with hESC-CMs (12.5 and 50 μmol/L) worked out at 0.5 h. Further, the “CI (concentration at which cell index is decreased, ↓)” value in the data set with hESC-CMs and in the data set on hiPSC-CMs (hiPSC-CMs) was 100↓ μmol•L^-1 throughout. In the data set with hESC-CMs (concentration-dependent), the “concentration that weakened the pulse signals” value was ≥ 3.13 µmol/L. In addition, the figures for the “IC50/EC50 (IC50)” value in the data set with hESC-CMs (setting [1]) and with hiPSC-CMs (setting [3]) were 2.18 µM and 13.97 µM, respectively. Also, the “concentration that weakened the amplitudes of pulse signals” value in the data set with hiPSC-CMs (hiPSC-CMs) is ≥ 12.5 µmol/L. The “time after which beating rate spontaneously recovered” value in the data set on hiPSC-CMs (hiPSC-CMs, 3.13 μmol/L) was 1 h. The beating rate entry with hiPSC-CMs (hiPSC-CMs, 3.13 μmol/L, 0.5 h after administration) is “markedly reduced”. The “time after which amplitude recovered” value with hiPSC-CMs (hiPSC-CMs, 12.5 μmol/L) is 2 h. The amplitude entry with hiPSC-CMs (hiPSC-CMs, 12.5 μmol/L, 0.5 h and 1 h post administration) is on record as “substantially reduced”. Moreover, in the data set on hiPSC-CMs (hiPSC-CMs, 50 and 100 μmol/L), the “self-recovery of automaticity within the observation period” value is reported as “without self-recovery”. For the same compound, in the data set on hiPSC-CMs (hiPSC-CMs, 50 and 100 μmol/L), the “time after administration at which cellular automaticity ceased” value worked out at 0.5 h.
